In patent US20160015786A1, “MOBILIZING AGENTS AND USES THEREFOR” (MATER MEDICAL RESEARCH INSTITUTE LIMITED, priority 2013, published 2016):

What was measured:
[1] = test system: competitive repopulating HSC; assay: Long-term competitive repopulation assay of mobilized blood; type: in vivo, C57BL/6 mice
Description: FIGS. 3A and 3B are graphical representations showing that Compound X synergizes with G-CSF and Plerixafor to enhance mobilization of competitive repopulating HSCs. CD45.2^+ mice were mobilized with G-CSF for 2 or 4 days with G-CSF alone (filled circles), with G-CSF in combination with Plerixafor for 1 hr (filled triangles), with Compound X for 3 days (filled squares) or with both Plerixafor, 1 hr, and Compound X, 3 days (filled inverted triangles). Blood (20 μL) was transplanted in lethally irradiated recipients together with 200,000 competitive BM cells from CD45.1^+ mice. Proportion of blood CD45.2+ leukocytes at 16 weeks post-transplantation and number of repopulating units per mL of mobilized blood calculated from donor chimerism at 16 weeks post-transplantation from (3A) 2 days treatment with G-CSF and (3B) 4 days treatment with G-CSF. Each dot is a result from one recipient mouse, bars are average. *: p<0.05; ** 0.001<p<0.01; *** p<0.001.
This synergistic increase in HSC mobilization was further confirmed in long-term competitive repopulation assays following transplantation of 20 μL mobilized blood in competition with 2×10^5 BM cells from congenic donors. […] The number of mobilized long-term competitive repopulating HSC (measured 16 weeks post-transplant) doubled after treatment with 2 days G-CSF+1 h Plerixafor+3 days Compound X (G2P1X3) compared to G-CSF+Plerixafor (G2P1, p<0.05; FIG. 3A). […] The addition of Compound X to G-CSF (G4X3) increased 6-fold the number of mobilized repopulating units compared to G-CSF (G4) alone (P<0.001; FIG. 3B). The combination of Compound X with G-CSF and Plerixafor (G4P1X3) increased mobilization of repopulating units 3-fold compared to G-CSF+Plerixafor (G4P1) alone (P<0.001; FIG. 3B).
The content of mobilized blood samples in competitive repopulating HSC was determined in competitive repopulation assays as previously described (12,17). The day prior to blood harvest, recipient congenic B6.SJL CD45.1^+ female mice were lethally irradiated with 11.0Gy in two split doses 4 hours apart. 50 μL blood samples from 6 mobilized CD45.2^+ C57BL/6 donor mice were pooled within each treatment group and 20 μL blood aliquots were taken from this pool and mixed with 200,000 competitive whole BM cells from untreated B6.SJL CD45.1^+ in a total volume of 200 μL saline, and injected retro-orbitally into each lethally irradiated recipient. Recipients were maintained with antibiotics for the first 3 weeks post-transplant and tail bled 8, 12 and 16 weeks post-transplant to determine CD45.2 (test donor blood) versus CD45.1 (competitive whole BM cells) chimerism in myeloid, B and T lineages by flow cytometry using CD45.1-PE, CD45.2-allophycocyanin (APC), CD3-FITC, B220-allophycocyanin (APC)-cyanin (CY) 7, CD11b-PECY7, Ly6G-Pacific Blue. Content in repopulating units (RU) was calculated as previously described (18-19).

HIF-1α protein = assay: Western blot of bone marrow cell lysates for HIF-1α stabilization in treated mice; type: in vivo, C57Bl/6 mice; settings: FIG. 1A
Description: FIGS. 1A, 1B, 1C, and 1D are graphical representations showing the effect of Compound X and G-CSF on HIF-1α protein and CFC mobilization. (1A) Western blot analysis of bone marrow (BM) cell lysates from mice treated with saline (Saline), with Compound X for 3 days (X3), with G-CSF for 2 days (G2) or with both Compound X and G-CSF (G2X3) for presence of HIF-1α and β-actin. Each lane represents a different mouse. […] (1D) Time-course numbers of CFC per mL blood or per spleen for mice treated with Plerixafor with or without Compound X. Mice were treated with Plerixafor for 1 hour (P1) together with Compound X for 1, 2, 3 or 4 days (P1X1-P1X4). Data are mean±SD of 6 mice per condition. * p<0.05; ** p<0.01; *** p<0.001.
To evaluate whether pharmacological stabilization of HIF-1α protein would enhance HSC mobilization in response to G-CSF, C57Bl/6 mice were treated with recombinant human G-CSF (rhuG-CSF) twice daily for 1-3 days together with a PHD inhibitor, Compound X, daily for 3 days. […] Mobilization of colony-forming cells (CFCs) to the blood and spleen were measured (FIG. 1B). […] To assess the optimum duration of Compound X treatment, Compound X was administered for 1-4 days and G-CSF for the last 2 days before tissue sampling (FIG. 1C).
All procedures were approved by the animal experimentation ethics committee of the University of Queensland. […]

For `O=C(O)CNC(=O)c1ncc2cc(Sc3ccccc3)ccc2c1O` [Compound X, [(4-Hydroxy-7-phenylsulfanyl-isoquinoline-3-carbonyl)-amino]-acetic acid], the “number of mobilized long-term competitive repopulating HSC versus G-CSF+Plerixafor” value ([1]; 16 weeks post-transplant, G2P1X3 vs G2P1, p<0.05, FIG. 3A) was “doubled”, the “competitive repopulating HSC mobilized (CD45.2/CD45.1 chimerism) versus G-CSF+Plerixafor” value ([1]; 2 days G-CSF+Plerixafor+Compound X (G2P1X3) vs G2P1, p<0.01) was 6 fold and the “number of long-term repopulating HSC per mL of blood” value ([1]; Compound X in combination with G-CSF and Plerixafor (discussion)) was “tripled”. The “increase in mobilization of repopulating units versus G-CSF+Plerixafor” value ([1]; G4P1X3 vs G4P1, P<0.001, FIG. 3B) was 3 fold, the “increase in number of mobilized repopulating units versus G-CSF alone” value ([1]; G-CSF 4 days + Compound X (G4X3) vs G4, P<0.001, FIG. 3B) was 6 fold and the “stabilization of HIF-1α protein in bone marrow leukocytes” value (HIF-1α protein; Compound X daily for 3 days) was “stabilization of HIF-1α protein was demonstrated”. The “stabilization of HIF-1α protein compared to G-CSF alone” value (HIF-1α protein; Compound X in combination with G-CSF) was “significantly increased”.
